Data reported in PubChem BioAssay (NCI).
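These data come from cells grown in 96-well plates and exposed to compound for 48 hours at five concentrations. GI50 marks 50% less growth. TGI denotes the concentration required for complete inhibition of growth.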

Key:
Experiment in all cases: inhibition of tumour cell growth, NCI panel, 48 h
786-0 renal = system: 786-0 renal
A498 renal = system: A498 renal
A549 NSCLC = system: A549 NSCLC
ACHN renal = system: ACHN renal
BT-549 breast = system: BT-549 breast
CAKI-1 renal = system: CAKI-1 renal
CCRF-CEM leukemia = system: CCRF-CEM leukemia
COLO 205 colon = system: COLO 205 colon
DU-145 prostate = system: DU-145 prostate
EKVX NSCLC = system: EKVX NSCLC
HCC-2998 colon = system: HCC-2998 colon
HCT-116 colon = system: HCT-116 colon
HCT-15 colon = system: HCT-15 colon
HL-60(TB) leukemia = system: HL-60(TB) leukemia
HOP-62 NSCLC = system: HOP-62 NSCLC
HOP-92 NSCLC = system: HOP-92 NSCLC
HS 578T breast = system: HS 578T breast
HT29 colon = system: HT29 colon
IGROV1 ovarian = system: IGROV1 ovarian
K-562 leukemia = system: K-562 leukemia
KM12 colon = system: KM12 colon
M14 melanoma = system: M14 melanoma
MALME-3M melanoma = system: MALME-3M melanoma
MCF7 breast = system: MCF7 breast
MDA-MB-231 breast = system: MDA-MB-231 breast
MDA-MB-435 = system: MDA-MB-435
MDA-MB-468 breast = system: MDA-MB-468 breast
MOLT-4 leukemia = system: MOLT-4 leukemia
NCI-H23 lung = system: NCI-H23 lung
NCI-H460 lung = system: NCI-H460 lung
NCI-H522 lung = system: NCI-H522 lung
OVCAR-3 ovarian = system: OVCAR-3 ovarian
OVCAR-4 ovarian = system: OVCAR-4 ovarian
OVCAR-5 ovarian = system: OVCAR-5 ovarian
OVCAR-8 ovarian = system: OVCAR-8 ovarian
PC-3 prostate = system: PC-3 prostate
RXF 393 renal = system: RXF 393 renal
SF-268 CNS = system: SF-268 CNS
SF-295 CNS = system: SF-295 CNS
SF-539 CNS = system: SF-539 CNS
SK-MEL-2 melanoma = system: SK-MEL-2 melanoma
SK-MEL-28 melanoma = system: SK-MEL-28 melanoma
SK-MEL-5 melanoma = system: SK-MEL-5 melanoma
SK-OV-3 ovarian = system: SK-OV-3 ovarian
SN12C renal = system: SN12C renal
SNB-19 CNS = system: SNB-19 CNS
SNB-75 CNS = system: SNB-75 CNS
SR leukemia = system: SR leukemia
SW-620 colon = system: SW-620 colon
T-47D breast = system: T-47D breast
TK-10 renal = system: TK-10 renal
U251 CNS = system: U251 CNS
UACC-257 melanoma = system: UACC-257 melanoma
UACC-62 melanoma = system: UACC-62 melanoma
UO-31 renal = system: UO-31 renal

For `COc1cc(C2CC(c3ccc(C(F)(F)F)cc3)=Nc3c(N)nc(N)nc3N2)ccc1Oc1nc(Nc2ccc(F)cc2)nc(N(C)C)n1` (stereo not given), the GI50 (786-0 renal) was 4 µM, the TGI (786-0 renal) was 16.6 µM and the GI50 (A498 renal) was 17 µM. The TGI (A498 renal) was 89.9 µM, the GI50 (A549 NSCLC) was 4.78 µM and the TGI (A549 NSCLC) was over 100 µM. It also gave a GI50 (ACHN renal) of 6.05 µM, a TGI (ACHN renal) of over 100 µM and a GI50 (BT-549 breast) of 4.41 µM. The TGI (BT-549 breast) was 21 µM, the GI50 (CAKI-1 renal) was 1650 nM and the TGI (CAKI-1 renal) was over 100 µM. For the same compound, the GI50 (CCRF-CEM leukemia) was 3.32 µM, the TGI (CCRF-CEM leukemia) was over 100 µM and the GI50 (COLO 205 colon) was 3.09 µM. The TGI (COLO 205 colon) was 14.7 µM, the GI50 (DU-145 prostate) was 4.9 µM and the TGI (DU-145 prostate) was over 100 µM. It also gave a GI50 (EKVX NSCLC) of 4.23 µM, a TGI (EKVX NSCLC) of over 100 µM and a GI50 (HCC-2998 colon) of 2260 nM. The TGI (HCC-2998 colon) was 5.69 µM, the GI50 (HCT-116 colon) was 1760 nM and the TGI (HCT-116 colon) was 3.65 µM. For the same compound, the GI50 (HCT-15 colon) was 3.4 µM, the TGI (HCT-15 colon) was 14.6 µM and the GI50 (HL-60(TB) leukemia) was 2350 nM. For the same compound, the TGI (HL-60(TB) leukemia) was 47.3 µM, the GI50 (HOP-62 NSCLC) was 17.8 µM and the TGI (HOP-62 NSCLC) was 74.6 µM. It also gave a GI50 (HOP-92 NSCLC) of 2100 nM, a TGI (HOP-92 NSCLC) of 9.46 µM and a GI50 (HS 578T breast) of 4.77 µM. The TGI (HS 578T breast) was 96.2 µM, the GI50 (HT29 colon) was 2230 nM and the TGI (HT29 colon) was 5.86 µM. It also gave a GI50 (IGROV1 ovarian) of 5 µM, a TGI (IGROV1 ovarian) of over 100 µM and a GI50 (K-562 leukemia) of 1850 nM. For the same compound, the TGI (K-562 leukemia) was over 100 µM, the GI50 (KM12 colon) was 3.05 µM and the TGI (KM12 colon) was 11.7 µM. For the same compound, the GI50 (M14 melanoma) was 4.41 µM, the TGI (M14 melanoma) was 50.7 µM and the GI50 (MALME-3M melanoma) was 2840 nM. It also gave a TGI (MALME-3M melanoma) of 14.2 µM, a GI50 (MCF7 breast) of 2660 nM and a TGI (MCF7 breast) of 10.7 µM. The GI50 (MDA-MB-231 breast) was 2290 nM, the TGI (MDA-MB-231 breast) was 8.39 µM and the GI50 (MDA-MB-435) was 4.59 µM. The TGI (MDA-MB-435) was 23.5 µM, the GI50 (MDA-MB-468 breast) was 2400 nM and the TGI (MDA-MB-468 breast) was 7.79 µM. For the same compound, the GI50 (MOLT-4 leukemia) was 1710 nM, the TGI (MOLT-4 leukemia) was over 100 µM and the GI50 (NCI-H23 lung) was 16.9 µM. The TGI (NCI-H23 lung) was 74.9 µM, the GI50 (NCI-H460 lung) was 2610 nM and the TGI (NCI-H460 lung) was 7.19 µM. The GI50 (NCI-H522 lung) was 4.75 µM, the TGI (NCI-H522 lung) was 23.3 µM and the GI50 (OVCAR-3 ovarian) was 5.46 µM. It also gave a TGI (OVCAR-3 ovarian) of 21.9 µM, a GI50 (OVCAR-4 ovarian) of 3.92 µM and a TGI (OVCAR-4 ovarian) of 33.1 µM. The GI50 (OVCAR-5 ovarian) was 35.2 µM, the TGI (OVCAR-5 ovarian) was over 100 µM and the GI50 (OVCAR-8 ovarian) was 5.48 µM. For the same compound, the TGI (OVCAR-8 ovarian) was over 100 µM, the GI50 (PC-3 prostate) was 3.2 µM and the TGI (PC-3 prostate) was over 100 µM. It also gave a GI50 (RXF 393 renal) of 1220 nM, a TGI (RXF 393 renal) of 5.54 µM and a GI50 (SF-268 CNS) of 6.14 µM. It also gave a TGI (SF-268 CNS) of over 100 µM, a GI50 (SF-295 CNS) of 7.12 µM and a TGI (SF-295 CNS) of 62.1 µM. It also gave a GI50 (SF-539 CNS) of 6.1 µM, a TGI (SF-539 CNS) of 22.1 µM and a GI50 (SK-MEL-2 melanoma) of 2940 nM. For the same compound, the TGI (SK-MEL-2 melanoma) was 11.7 µM, the GI50 (SK-MEL-28 melanoma) was 28.1 µM and the TGI (SK-MEL-28 melanoma) was over 100 µM. For the same compound, the GI50 (SK-MEL-5 melanoma) was 3.32 µM, the TGI (SK-MEL-5 melanoma) was 12.8 µM and the GI50 (SK-OV-3 ovarian) was 63.5 µM. For the same compound, the TGI (SK-OV-3 ovarian) was over 100 µM, the GI50 (SN12C renal) was 6.09 µM and the TGI (SN12C renal) was 46.6 µM. The GI50 (SNB-19 CNS) was 9.14 µM, the TGI (SNB-19 CNS) was over 100 µM and the GI50 (SNB-75 CNS) was 2170 nM. For the same compound, the TGI (SNB-75 CNS) was over 100 µM, the GI50 (SR leukemia) was 1890 nM and the TGI (SR leukemia) was 5.9 µM. The GI50 (SW-620 colon) was 5.59 µM, the TGI (SW-620 colon) was 75.2 µM and the GI50 (T-47D breast) was 19 µM. The TGI (T-47D breast) was over 100 µM, the GI50 (TK-10 renal) was 18 µM and the TGI (TK-10 renal) was 71 µM. For the same compound, the GI50 (U251 CNS) was 4.63 µM, the TGI (U251 CNS) was 21.1 µM and the GI50 (UACC-257 melanoma) was 14.1 µM. It also gave a TGI (UACC-257 melanoma) of 76.5 µM, a GI50 (UACC-62 melanoma) of 13.1 µM and a TGI (UACC-62 melanoma) of 31.2 µM. It also gave a GI50 (UO-31 renal) of 3.66 µM and a TGI (UO-31 renal) of over 100 µM.
